Here are results for two molecules from article PMC9399411, “Identification of solamargine as a cisplatin sensitizer through phenotypical screening in cisplatin-resistant NSCLC organoids” (Frontiers in Pharmacology, 2022).

In test [1] the target is T1, SMO (smoothened) (Homo sapiens, UniProt Q99835).
T1 construct: human Smo protein stably overexpressed in U2OS cells
In words: BODIPY-cyclopamine competitive displacement on fixed U2OS-Smo cells (fluorescence imaging), […] solamargine. The test is classed as cell-based.

Test [2] deals with T1, SMO (smoothened). Kind of test: BODIPY-cyclopamine competitive displacement on fixed U2OS-Smo cells (fluorescence imaging), […] vismodegib. The test is classed as cell-based.

T1 sequence (Q99835 28-787): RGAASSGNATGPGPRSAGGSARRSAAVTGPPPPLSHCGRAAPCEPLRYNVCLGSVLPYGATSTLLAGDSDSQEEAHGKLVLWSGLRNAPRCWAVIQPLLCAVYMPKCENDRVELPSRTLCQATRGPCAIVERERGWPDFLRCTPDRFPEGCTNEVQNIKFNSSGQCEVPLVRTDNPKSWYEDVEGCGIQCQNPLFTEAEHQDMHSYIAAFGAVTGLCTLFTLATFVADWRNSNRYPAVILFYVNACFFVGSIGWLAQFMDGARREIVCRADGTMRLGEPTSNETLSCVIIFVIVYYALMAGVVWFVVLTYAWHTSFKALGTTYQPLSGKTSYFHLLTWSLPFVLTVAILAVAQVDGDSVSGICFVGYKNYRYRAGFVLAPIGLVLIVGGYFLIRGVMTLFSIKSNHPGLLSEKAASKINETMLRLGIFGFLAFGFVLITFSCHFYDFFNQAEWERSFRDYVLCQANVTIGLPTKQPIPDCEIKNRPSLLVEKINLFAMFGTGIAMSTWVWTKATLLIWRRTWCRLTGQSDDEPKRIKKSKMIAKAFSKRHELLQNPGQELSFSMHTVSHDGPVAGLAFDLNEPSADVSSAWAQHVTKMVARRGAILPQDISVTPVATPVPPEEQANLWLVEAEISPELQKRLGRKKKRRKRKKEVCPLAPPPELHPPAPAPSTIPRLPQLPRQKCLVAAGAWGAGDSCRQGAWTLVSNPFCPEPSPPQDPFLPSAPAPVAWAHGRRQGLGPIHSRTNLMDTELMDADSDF

With `C[C@@H]1CC[C@@]2(NC1)O[C@H]1C[C@H]3[C@@H]4CC=C5C[C@@H](O[C@@H]6O[C@H](CO)[C@@H](O[C@@H]7O[C@@H](C)[C@H](O)[C@@H](O)[C@H]7O)[C@H](O)[C@H]6O[C@@H]6O[C@@H](C)[C@H](O)[C@@H](O)[C@H]6O)CC[C@]5(C)[C@H]4CC[C@]3(C)[C@H]1[C@@H]2C` [Solamargine], the “BODIPY-cyclopamine competitive displacement on fixed U2OS-Smo cells (fluorescenc)” value in test [1] was “fluorescent signaling of BODIPY-cyclopamine wasalso suppressed by Solamargine (Figure 4C), suggesting the inhibitory binding of Solamargine to SMO”. For the molecule `CS(=O)(=O)c1ccc(C(=O)Nc2ccc(Cl)c(-c3ccccn3)c2)c(Cl)c1` [vismodegib], the “BODIPY-cyclopamine competitive displacement on fixed U2OS-Smo cells (fluorescenc)” value in test [2] was “vismodegib can directly bind to SMO and competitively remove BODIPY-cyclopamine from SMO”.
